According to patent US8716260B2, “Use of S-adenosylmethionine, vitamin E, and vitamin C for the treatment of oxidative liver injury” (University of Manitoba, priority 2005, dated 2014):

Tests used:
Assay type in all cases: in vivo, rat
Male Sprague-Dawley rats [1] = assay: Rapid Insulin Sensitivity Test (RIST); details: for RIST index: TAA rats (TAA 200 mg.kg-1 i.p. 24 h before), control RIST, treatments i.p. 1 h post TAA; for RIST index post atropine: TAA rats, second RIST after atropine 0.1 mg.kg-1 i.v. (HISS-independent component)
Protocol: Surgical Preparation. Male Sprague-Dawley rats weighing 260-300 g from the University of Manitoba colony were maintained in the animal house under controlled conditions (22±1° C., 12 h light/12 h dark cycle). They were fed a standard rat chow diet with free access to water. All rats underwent a fasting period of 8 h and a refeeding phase of 2 h immediately before the start of surgical preparation. As HISS is only released in the fed state, the fasting-refeeding protocol assured a high level of HISS release in response to insulin. The rats were anaesthetized with an intraperitoneal injection of sodium pentobarbital (65 mg kg-1; Somnotol, MTC Pharmaceuticals, Ont). Maintained anesthesia was achieved throughout the experiment by a continuous infusion of pentobarbital sodium (0.5 mg.ml-1 saline given at 50 μl.min-1) through a cannula in the jugular vein, supplemented with a 0.65 mg (0.01 ml) bolus injection when required. The rats were placed on a temperature-controlled surgical table (Harvard Apparatus, Kent, England) and rectal temperature was monitored and held at 37-37.5° C. Spontaneous respiration was allowed through a tracheal tube.
An arterial-venous shunt was established, as previous described (Lautt W W et al. Can J Physiol Pharmacol. 1998; 76(12): 1080-6.), for monitoring mean arterial blood pressure (MAP), blood glucose level and for drug delivery. Briefly, two catheters (polyethylene tubing PE60), one inserted into the right femoral artery and the other into the right femoral vein, were connected to the two openings of a three way vascular circuit consisting of a T tube connected with silicon tubing. The third opening of the circuit was connected to a pressure transducer for the recording of the shunt pressure which, when the silicon tubing toward the venous side of the circuit was closed by clamping, represented the systemic arterial blood pressure. Blood samples were taken from the arterial side of the shunt for the glucose measurement. Flowing blood within the shunt assures the real time measurement of the blood glucose concentration, which is essential for the euglycemic clamp test as mentioned below. An infusion line was inserted into the venous side of the loop for drug delivery. Another infusion line connected to the jugular vein was established for glucose infusion. Animals were heparinized (100 IU.kg-1) to prevent clotting in the vascular loop.
Rapid Insulin Sensitivity Test (RIST). The RIST was performed as previously described (Lautt W W et al. Can J Physiol Pharmacol. 1998; 76(12): 1080-6.). Briefly, following completion of surgery, animals were allowed a 30-min stabilization period. The baseline glucose levels were then determined by samples taken at 5-min intervals and continued until three successive stable determinations were made. The mean of these three data points is regarded as the baseline for the RIST. To perform the RIST, human insulin (50mU.kg-1 in 0.5 ml saline) was infused into the femoral vein at the rate of 0.1 ml.min-1 for 5-min. After 1-min of insulin infusion, the first test glucose sample was determined and a variable glucose infusion (10%) was initiated. Blood samples were taken every 2-min and the glucose infusion rate was adjusted accordingly to maintain euglycemia. The RIST index is the amount of glucose (mg.kg-1) infused, to maintain euglycemia, over the test period that terminated when no further glucose infusion was required (approximately 30 min). At the end of a RIST, the animal is at its pretest glycemic level.
(§1) Animal groups. Six groups of animals were established under the following treatments: (1): Normal control rats, treated with saline and corn oil injection at the dose of 2 and 1 ml.kg-1, respectively, n=12. (2): Normal rats, treated with Vitamin C, Vitamin E and SAMe, n=8. The dose for Vitamin C and Vitamin E were 100 and 200 mg.kg-1, respectively; for SAMe was 25 mg.kg-1. […]

Male Sprague-Dawley rats [2] = assay: Hepatic enzymes analysis (serum ALT and AST); details: TAA rats; effect on TAA-induced increases
Protocol: as §1, with “mg.kg-1. (3): Thioacetaminde (TAA) rats, given with intraperitoneal injection of TAA at the dose of 200 mg.kg-1, n=9. (4): TAA rats treated with Vitamin C+Vitamin E, n=11. (5): TAA rats with SAMe treatment, n=7. (6): TAA rats treated with Vitamin C+Vitamin E+SAMe, n=8. All compounds were administered by intraperitoneal injection (i. p.).” for “mg.kg-1.”
Protocol. […] Following the establishment of glucose baseline, the first RIST index was determined and this was regarded as the control RIST. […] The percentage contribution of HISS-dependent component to total insulin sensitivity was calculated as: % HISS=(RIST index in control−RIST index after atropine)/RIST index in control. […]
Hepatic enzymes analysis. Serum samples from rats in groups 1 to 6 were analyzed for alanine aminotransferase (ALT) and aspartate aminotransferase (AST) activities spectrophotometrically utilizing an Abbott analyzer and Diagnostic Chemicals Limited assay reagents (Charlottetown, P.E.I, Canada).

Male Sprague-Dawley rats [3] = assay: Liver histopathological examination; details: TAA rats; for Bridging Necrosis / Necrosis: score 0-3; for Inflammation: score 0-3 (normal-0, mild-1, moderate-2, severe-3), mean of 5 fields
Protocol: Six groups of animals were established under the following treatments: (1): Normal control rats, treated with saline and corn oil injection at the dose of 2 and 1 ml.kg-1, respectively, n=12. (2): Normal rats, treated with Vitamin C, Vitamin E and SAMe, n=8. The dose for Vitamin C and Vitamin E were 100 and 200 mg.kg-1, respectively; for SAMe was 25 mg.kg-1. (3): Thioacetaminde (TAA) rats, given with intraperitoneal injection of TAA at the dose of 200 mg.kg-1, n=9. (4): TAA rats treated with Vitamin C+Vitamin E, n=11. (5): TAA rats with SAMe treatment, n=7. (6): TAA rats treated with Vitamin C+Vitamin E+SAMe, n=8. All compounds were administered by intraperitoneal injection (i. p.). TAA was administered 24 h before the start of surgery, and all treatment with vitamins and SAMe were given 1 h post TAA administration.
The left liver lobe was excised and embedded in paraffin, sliced 7 μm in thickness, and stained with hematoxylin-eosin. The tissue slices were then analyzed with light microscopy. Histopathological analysis of the injured area was performed with a computerized video-imaging system (Image-Pro Plus. Media Cybernetics, Md., USA) by a pathologist (Y.F.) who was not aware of sample assignment to experimental group. The degree of injury, including inflammation, necrosis and bridging necrosis, was expressed as the mean of 5 different fields for each slide scaled as 0-3: normal-0, mild-1, moderate-2 and severe-3.

Structure (SMILES)	inhibition at 0.1 mg/kg (Male Sprague-Dawley rats [1]; Rattus norvegicus, read-out: inhibition of insulin sensitivity) [%]	RIST index after atropine (Male Sprague-Dawley rats [1]; normal rats, atropine 0.1 mg.kg^−1) [mg/kg]	RIST index (Male Sprague-Dawley rats [1]) [mg/kg]	RIST index post atropine (Male Sprague-Dawley rats [1]) [mg/kg]	Serum ALT and AST activities (Male Sprague-Dawley rats [2])	histological injury of liver (Male Sprague-Dawley rats [3])	Bridging Necrosis (Male Sprague-Dawley rats [3])	Necrosis (Male Sprague-Dawley rats [3])	Inflammation (Male Sprague-Dawley rats [3])
CN1[C@@H]2CC[C@H]1C[C@@H](OC(=O)C(CO)c1ccccc1)C2 (stereo partly shown) [Atropine, atropine]	50 ± 2.1	82.7 ± 3.2	–	–	–	–	–	–	–
C[S+](CC[C@H](N)C(=O)O)C[C@H]1O[C@@H](n2cnc3c(N)ncnc32)[C@H](O)[C@@H]1O (stereo partly shown) [SAMe, S-adenosylmethionine]	–	–	88.0 ± 4.1	72.1 ± 3.5	did not prevent	slight reduction in histological injury	0.09 ± 0.09	1.79 ± 0.15 #	0.93 ± 0.13
CC(=N)S [TAA, thioacetamide]	–	–	75.5 ± 2.8	69.0 ± 2.1	significant increase	massive hepatocytic necrosis	1.17 ± 0.36	2.33 ± 0.17	1.50 ± 0.22
